Reference: the supplement of paper PMC10307832

How the values were obtained:
Assay in all cases: relative viability (nuclei count vs DMSO), 5 days (fraction); higher = more cells survive
BAM7 + OSI-027 = compound: CCOC1=CC=CC=C1N=NC2=C(NN(C2=O)C3=NC(=CS3)C4=CC=CC=C4)C [BAM7] + COc1cccc2cc(-c3nc([C@H]4CC[C@H](C(=O)O)CC4)n4ncnc(N)c34)[nH]c12 [OSI-027] (partner 0.5 µM)
Method in brief: (§1)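 Five library-drug doses in √10 steps were combined with a fixed anchor-drug dose, or a single drug was given alone, by pin tool to lung cancer cell lines in 1536-well plates the day after seeding. Nuclei were stained and counted after 5 days. Relative viability is the nuclei count in treated wells over that in vehicle wells, taken as the median of duplicate plates.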

BAM7 + Tozasertib = compound: CCOC1=CC=CC=C1N=NC2=C(NN(C2=O)C3=NC(=CS3)C4=CC=CC=C4)C [BAM7] + Cc1cc(Nc2cc(N3CCN(C)CC3)nc(Sc3ccc(NC(=O)C4CC4)cc3)n2)n[nH]1 [Tozasertib] (partner 0.1 µM)
Method in brief: as §1

BAM7 + AZD7762 = compound: CCOC1=CC=CC=C1N=NC2=C(NN(C2=O)C3=NC(=CS3)C4=CC=CC=C4)C [BAM7] + NC(=O)Nc1cc(-c2cccc(F)c2)sc1C(=O)N[C@H]1CCCNC1 [AZD7762] (partner 0.2 µM)
Method in brief: as §1

[1] = compound: CCn1c(-c2nonc2N)nc2c(C#CC(C)(C)O)ncc(OC[C@H]3CCCNC3)c21 + Cc1nc(NC(=O)N2CCC[C@H]2C(N)=O)sc1-c1ccnc(C(C)(C)C(F)(F)F)c1 [Alpelisib] (partner 2 µM)
Method in brief: as §1

Cell Line | relative viability (BAM7 + OSI-027; first compound 0.5 µM) | relative viability (BAM7 + OSI-027; first compound 5 µM) | relative viability (BAM7 + OSI-027; first compound 15.81 µM) | relative viability (BAM7 + OSI-027; first compound 50 µM) | relative viability (BAM7 + Tozasertib; first compound 0.5 µM) | relative viability (BAM7 + Tozasertib; first compound 5 µM) | relative viability (BAM7 + Tozasertib; first compound 15.81 µM) | relative viability (BAM7 + Tozasertib; first compound 50 µM) | relative viability (BAM7 + AZD7762; first compound 0.5 µM) | relative viability (BAM7 + AZD7762; first compound 5 µM) | relative viability (BAM7 + AZD7762; first compound 15.81 µM) | relative viability (BAM7 + AZD7762; first compound 50 µM) | relative viability ([1]; first compound 0.01 µM) | relative viability ([1]; first compound 0.03162 µM) | relative viability ([1]; first compound 0.1 µM) | relative viability ([1]; first compound 0.3162 µM) | relative viability ([1]; first compound 1 µM)
NCI-H2126 | 0.662 | 0.733 | 0.736 | 0.641 | 0.836 | 0.679 | 0.643 | 0.74 | 0.804 | 0.983 | 1.03 | 0.936 | 0.72 | 0.793 | 0.74 | 0.746 | 0.753
NCI-H3122 | 1.03 | 1.11 | 1.01 | 1.28 | 0.44 | 0.387 | 0.351 | 0.324 | 0.946 | 1.13 | 0.918 | 0.846 | 0.869 | 0.71 | 0.795 | 0.798 | 0.756
NCI-H1975 | 0.496 | 0.525 | 0.465 | 0.532 | 0.41 | 0.512 | 0.465 | 0.512 | 0.725 | 0.763 | 0.642 | 0.632 | 0.716 | 0.656 | 0.623 | 0.543 | 0.583
NCI-H1944 | 0.39 | 0.439 | 0.434 | 0.445 | 0.25 | 0.253 | 0.257 | 0.257 | 0.51 | 0.525 | 0.508 | 0.623 | 0.886 | 0.759 | 0.844 | 0.804 | 0.777
LU99A | 0.256 | 0.29 | 0.347 | 0.322 | 0.273 | 0.275 | 0.288 | 0.266 | 0.371 | 0.438 | 0.35 | 0.293 | 0.586 | 0.558 | 0.538 | 0.504 | 0.47
SW 1573 | 0.753 | 0.708 | 0.591 | 0.711 | 0.213 | 0.174 | 0.165 | 0.191 | – | – | – | – | 0.717 | 0.783 | 0.656 | 0.73 | 0.734
NCI-H2009 | 0.68 | 0.758 | 0.581 | 0.689 | 0.832 | 0.763 | 0.62 | 0.608 | – | – | – | – | 1.15 | 1.19 | 1.22 | 1.17 | 1.18
COR-L23 | 0.772 | 0.74 | 0.802 | 0.858 | 0.177 | 0.197 | 0.133 | 0.183 | – | – | – | – | 0.695 | 0.866 | 0.671 | 0.663 | 0.7
NCI-H1299 | – | – | – | – | – | – | – | – | – | – | – | – | 1.05 | 1.06 | 1.05 | 1.03 | 0.968
NCI-H1650 | 0.542 | 0.512 | 0.498 | 0.73 | 0.335 | 0.305 | 0.28 | 0.314 | – | – | – | – | – | – | – | – | –
COR-L 105 | 0.688 | 0.579 | 0.73 | 0.713 | 0.359 | 0.435 | 0.357 | 0.359 | – | – | – | – | 1.05 | 0.962 | 0.871 | 0.703 | 0.808
ChaGo-K-1 | 0.444 | 0.481 | 0.52 | 0.525 | 0.226 | 0.229 | 0.197 | 0.262 | 0.831 | 0.891 | 0.843 | 0.808 | – | – | – | – | –
NCI-H2228 | 0.716 | 0.545 | 0.593 | 0.594 | 0.239 | 0.23 | 0.208 | 0.286 | – | – | – | – | 0.68 | 0.854 | 0.622 | 0.651 | 0.569
NCI-H1648 | 0.275 | 0.282 | – | 0.283 | 0.565 | 0.356 | – | 0.434 | 0.489 | 0.775 | 0.633 | 0.921 | – | – | – | – | –
NCI-H661 | 0.662 | 0.704 | 0.761 | 0.686 | 0.376 | 0.361 | 0.359 | 0.358 | – | – | – | – | 0.562 | 0.553 | 0.603 | 0.635 | 0.576
NCI-H1563 | 0.729 | 0.721 | 0.763 | 0.791 | – | – | – | – | – | – | – | – | 0.872 | 0.913 | 0.913 | 0.837 | 0.826
A549 | – | – | – | – | – | – | – | – | – | – | – | – | 0.761 | 0.654 | 0.748 | 0.482 | 0.714
NCI-H522 | 0.976 | 0.744 | 0.687 | 0.831 | 0.574 | 0.57 | 0.561 | 0.583 | 0.748 | 0.967 | 0.851 | 0.851 | – | – | – | – | –
NCI-H1623 | 0.422 | 0.383 | 0.368 | 0.349 | 0.389 | 0.367 | 0.357 | 0.371 | – | – | – | – | – | – | – | – | –
SW 900 | 0.194 | 0.539 | 0.545 | 0.609 | 0.48 | 0.556 | 0.475 | 0.562 | – | 0.592 | – | 0.691 | – | – | – | – | –
IA-LM | – | – | – | – | – | – | – | – | – | – | – | – | 0.728 | 0.733 | 0.987 | 0.654 | 0.613
EBC-1 | – | – | – | – | – | – | – | – | – | – | – | – | 0.822 | 0.973 | 0.763 | 0.62 | 0.628
